Consider 27 compounds from patent US8097620B2, “Diazaquinolones that inhibit prolyl hydroxylase activity” (Amgen Inc., priority 2007, dated 2012).

SMILES strings stand for the structures.

Sequence of HIF PHD2 (Q9GZT9 whole entry): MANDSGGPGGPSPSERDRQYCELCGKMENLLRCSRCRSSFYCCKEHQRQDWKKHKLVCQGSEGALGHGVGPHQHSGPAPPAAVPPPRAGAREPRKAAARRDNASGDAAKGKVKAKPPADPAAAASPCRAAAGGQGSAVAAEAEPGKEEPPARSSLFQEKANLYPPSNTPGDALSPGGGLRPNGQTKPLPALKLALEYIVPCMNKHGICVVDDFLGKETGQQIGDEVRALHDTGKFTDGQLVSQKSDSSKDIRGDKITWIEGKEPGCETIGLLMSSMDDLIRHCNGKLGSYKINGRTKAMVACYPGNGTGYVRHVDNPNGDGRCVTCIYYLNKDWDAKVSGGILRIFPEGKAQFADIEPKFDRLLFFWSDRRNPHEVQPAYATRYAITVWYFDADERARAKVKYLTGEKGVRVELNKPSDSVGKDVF

The experiment concerns the target HIF PHD2 (Homo sapiens, UniProt Q9GZT9). Nature of the experiment: PHD2 inhibition assay (TR-FRET, VCB-Eu detection of hydroxylated P564-HIF1α peptide). The format is biochemical. The settings on record: 2 nM PHD2, 100 nM P564-HIF1α peptide, 0.25 μM 2-oxoglutarate, 100 μM FeCl2, 2 mM ascorbic acid, pH 6. The method, then: Inhibition of HIF PHD2 activity was quantified utilizing the TR-FRET technology. HIF PHD2 catalyzes a hydroxyl modification on the proline residue of the P564-HIF1α peptide substrate (Biotin-[…] (SEQ ID NO: 7)) resulting in recognition and binding of the europylated Von Hippel-Lindau protein (pVHL), elongin B and elongin C heterotrimeric (VCB-Eu) complex.
The PHD2 inhibition assay was executed by addition of freshly dissolved FeCl2 to 178.57 μM (100 μM final concentration) in PHD2 Reaction Buffer containing 30 mM MES, pH 6, 10 mM NaCl, 0.25% Brij-35, 0.01% BSA, and 1% DMSO. 28 μL of the iron solution and 2 μL of inhibitor compounds serially diluted in 100% DMSO (5% DMSO final) were added to black polypropylene 96-well microtiter plates. To that, 10 μL of 10 nM PHD2 (2 nM final) was added to all wells of the plate except for the 8 wells of column 12 (LO control), and allowed to incubate at room temperature on the shaker for one hour. Column 6 was the HI control containing PHD2 enzyme and 5% DMSO vehicle, but no inhibitor compound. To initiate the PHD2 enzymatic reaction, 10 μL of a solution containing 500 nM P564-HIF1α peptide (100 nM final), 10 mM ascorbic acid (2 mM final), and 1.25 μM 2-oxoglutarate (α-ketoglutarate; 0.25 μM final) in PHD2 Reaction Buffer was added to all wells of the plate and allowed to incubate on the shaker at room temperature for one hour.
The reaction was terminated by addition of 25 μL TR-FRET Buffer (50 mM TRIS-HCl, pH 9, 100 mM NaCl, 0.05% BSA, and 0.5% Tween-20) containing 150 mM succinate (product inhibitor; 50 mM final), 75 nM streptavidin-APC (25 nM final), and 7.5 nM VCB-Eu (2.5 nM final). The TR-FRET detection reagents were placed on a shaker for 1 hour to reach binding equilibrium before reading on the Discovery platform (PerkinElmer). Europium is excited at 315 nm and phosphoresces at 615 nm with a large Stoke's shift. APC, in turn, emits at 655 nm upon excitation at 615 nm. The TR-FRET signal is measured as the ratio of the APC 655 nm signal divided by the internal europium reference 615 nm emission signal.
The POC (percentage of control) was determined by comparing the signal from hydroxylated peptide substrate in the enzyme reaction containing inhibitor compound with that from PHD2 enzyme with DMSO vehicle alone (HI control), and no enzyme (LO control). POC was calculated using the formula: % control (POC)=(cpd−average LO)/(average HI−average LO)*100. Data (consisting of POC and inhibitor concentration in μM) was fitted to a 4-parameter equation (y=A+((B−A)/(1+((x/C)^D))), where A is the minimum y (POC) value, B is the maximum y (POC), C is the x (cpd concentration) at the point of inflection and D is the slope factor) using a Levenburg-Marquardt non-linear regression algorithm.
Compound `Cn1c(=O)c(C(=O)NCC(=O)O)c(O)c2cnc(C(F)(F)F)nc21` [Example 14, 2-(5-hydroxy-8-methyl-7-oxo-2-(trifluoromethyl)-7,8-dihydropyrido[2,3-d]pyrimidine-6-carboxamido)acetic acid] gave a 50% inhibitory concentration (IC50) of 6.9 nM. That is a single-digit nanomolar value.

For `CCC1CCCCN1c1ncc2c(O)c(C(=O)NCC(=O)O)c(=O)n(C)c2n1` (stereo not drawn) [Example 19, 2-(2-(2-ethylpiperidin-1-yl)-5-hydroxy-8-methyl-7-oxo-7,8-dihydropyrido[2,3-d]pyrimidine-6-carboxamido)acetic acid], it took 71 nM to reach half-maximal inhibition (IC50).

Compound `Cn1c(=O)c(C(=O)NCC(=O)O)c(O)c2cc(C3=CCCCC3)nnc21` [Example 6, 2-(3-cyclohexenyl-5-hydroxy-8-methyl-7-oxo-7,8-dihydropyrido[2,3-c]pyridazine-6-carboxamido)acetic acid] displayed an IC50 of 16 nM.

Regarding `Cn1c(=O)c(C(=O)NCC(=O)O)c(O)c2cnc(-c3cccc4ccccc34)nc21` [Example 46, 2-(5-hydroxy-8-methyl-2-(naphthalen-1-yl)-7-oxo-7,8-dihydropyrido[2,3-d]pyrimidine-6-carboxamido)acetic acid], 2.3 nM corresponded to half-maximal inhibition (IC50).

The compound `CC(C)Oc1ccccc1-c1cc2c(O)c(C(=O)NCC(=O)O)c(=O)n(C)c2nn1` [Example 9, 2-(5-hydroxy-3-(2-isopropoxyphenyl)-8-methyl-7-oxo-7,8-dihydropyrido[2,3-c]pyridazine-6-carboxamido)acetic acid] yielded an IC50 of 14 nM.

For the compound `Cn1c(=O)c(C(=O)NCC(=O)O)c(O)c2cnc(-c3cccc4[nH]ccc34)nc21` [Example 56, 2-(5-hydroxy-2-(1H-indol-4-yl)-8-methyl-7-oxo-7,8-dihydropyrido[2,3-d]pyrimidine-6-carboxamido)acetic acid], the IC50 turned out to be 5.3 nM.

For the compound `Cn1c(=O)c(C(=O)NCC(=O)O)c(O)c2cnc(-c3ccsc3)nc21` [Example 54, 2-(5-hydroxy-8-methyl-7-oxo-2-(thiophen-3-yl)-7,8-dihydropyrido[2,3-d]pyrimidine-6-carboxamido)acetic acid], 4 nM corresponded to half-maximal inhibition (IC50).

In turn, `CC(C)Oc1cccc(-c2cc3c(O)c(C(=O)NCC(=O)O)c(=O)n(C)c3nn2)c1` [Example 7, 2-(5-hydroxy-3-(3-isopropoxyphenyl)-8-methyl-7-oxo-7,8-dihydropyrido[2,3-c]pyridazine-6-carboxamido)acetic acid] yielded an IC50 of 26 nM.

As for `Cn1c(=O)c(C(=O)NCC(=O)O)c(O)c2cc(C3=CCCC3)nnc21` [Example 4, 2-(3-cyclopentenyl-5-hydroxy-8-methyl-7-oxo-7,8-dihydropyrido[2,3-c]pyridazine-6-carboxamido)acetic acid], half-maximal inhibition (IC50) required 17 nM.

Take `Cn1c(=O)c(C(=O)NCC(=O)O)c(O)c2cnc(N3CCOCC3)nc21` [Example 13, 2-(5-hydroxy-8-methyl-2-morpholino-7-oxo-7,8-dihydropyrido[2,3-d]pyrimidine-6-carboxamido)acetic acid]: the IC50 is 240 nM. This IC50 is about 14-fold higher than that of the compound before.

Take `Cn1c(=O)c(C(=O)NCC(=O)O)c(O)c2cnc(-c3cc4ccccc4[nH]3)nc21` [Example 42, 2-(5-hydroxy-2-(1H-indol-2-yl)-8-methyl-7-oxo-7,8-dihydropyrido[2,3-d]pyrimidine-6-carboxamido)acetic acid]: half-maximal inhibition (IC50) was put at 3.1 nM.

In turn, `Cn1c(=O)c(C(=O)NCC(=O)O)c(O)c2cnc(-c3ccnc4ccccc34)nc21` [Example 45, 2-(5-hydroxy-8-methyl-7-oxo-2-(quinolin-4-yl)-7,8-dihydropyrido[2,3-d]pyrimidine-6-carboxamido)acetic acid] gave a 50% inhibitory concentration (IC50) of 2 nM. This IC50 lies about 1.6-fold lower than the previous one.

The compound `Cn1c(=O)c(C(=O)NCC(=O)O)c(O)c2cc(C3CCCC3)nnc21` [Example 5, 2-(3-cyclopentyl-5-hydroxy-8-methyl-7-oxo-7,8-dihydropyrido[2,3-c]pyridazine-6-carboxamido)acetic acid] showed an IC50 of 8.8 nM.

For the compound `COc1ccccc1-c1ncc2c(O)c(C(=O)NCC(=O)O)c(=O)n(C)c2n1` [Example 31, 2-(5-hydroxy-2-(2-methoxyphenyl)-8-methyl-7-oxo-7,8-dihydropyrido[2,3-d]pyrimidine-6-carboxamido)acetic acid], the IC50 is 2.4 nM. Compared with the last compound, the IC50 is about 3.7-fold lower.

`Cn1c(=O)c(C(=O)NCC(=O)O)c(O)c2cnc(N3CCCC3)nc21` [Example 15, 2-(5-hydroxy-8-methyl-7-oxo-2-(pyrrolidin-1-yl)-7,8-dihydropyrido[2,3-d]pyrimidine-6-carboxamido)acetic acid]: half-maximal inhibition (IC50) was put at 7.35 nM. Compared with the last compound, the IC50 is about 3.1-fold higher.

The compound `Cn1c(=O)c(C(=O)NCC(=O)O)c(O)c2cc(-c3ccccc3)nnc21` [Example 2, 2-(5-hydroxy-8-methyl-7-oxo-3-phenyl-7,8-dihydropyrido[2,3-c]pyridazine-6-carboxamido)acetic acid] yielded an IC50 of 17 nM.

With `CSc1ncc2c(O)c(C(=O)NCC(=O)O)c(=O)n(C)c2n1` [Example 10, 2-(5-hydroxy-8-methyl-2-(methylthio)-7-oxo-7,8-dihydropyrido[2,3-d]pyrimidine-6-carboxamido)acetic acid], the IC50 is 25 nM.

With `COc1ncc2c(O)c(C(=O)NCC(=O)O)c(=O)n(C)c2n1` [Example 12, 2-(5-hydroxy-2-methoxy-8-methyl-7-oxo-7,8-dihydropyrido[2,3-d]pyrimidine-6-carboxamido)acetic acid], half-maximal inhibition (IC50) required 18 nM.

Turning to `Cn1c(=O)c(C(=O)NCC(=O)O)c(O)c2cnc(-c3ccc(F)cc3)nc21` [Example 27, 2-(2-(4-fluorophenyl)-5-hydroxy-8-methyl-7-oxo-7,8-dihydropyrido[2,3-d]pyrimidine-6-carboxamido)acetic acid], the IC50 worked out at 2.3 nM.

The compound `Cn1c(=O)c(C(=O)NCC(=O)O)c(O)c2cnc(-c3cc4ccccc4s3)nc21` [Example 36, 2-(2-(benzo[b]thiophen-2-yl)-5-hydroxy-8-methyl-7-oxo-7,8-dihydropyrido[2,3-d]pyrimidine-6-carboxamido)acetic acid] displayed an IC50 of 7.4 nM.

Compound `Cn1c(=O)c(C(=O)NCC(=O)O)c(O)c2cnc(-c3ccccc3)nc21` [Example 25, 2-(5-hydroxy-8-methyl-7-oxo-2-phenyl-7,8-dihydropyrido[2,3-d]pyrimidine-6-carboxamido)acetic acid] displayed an IC50 of 4.3 nM.

In turn, `Cn1c(=O)c(C(=O)NCC(=O)O)c(O)c2cnc(-c3ccc(N4CCCCC4)cc3)nc21` [Example 32, 2-(5-hydroxy-8-methyl-7-oxo-2-(4-(piperidin-1-yl)phenyl)-7,8-dihydropyrido[2,3-d]pyrimidine-6-carboxamido)acetic acid] gave an IC50 of 5.3 nM.

`Cn1c(=O)c(C(=O)NCC(=O)O)c(O)c2cnc(-c3cnc4ccccc4c3)nc21` [Example 49, 2-(5-hydroxy-8-methyl-7-oxo-2-(quinolin-3-yl)-7,8-dihydropyrido[2,3-d]pyrimidine-6-carboxamido)acetic acid] returned an IC50 of 3.2 nM.

`Cn1c(=O)c(C(=O)NCC(=O)O)c(O)c2cnc(-c3ccc(N4CCOCC4)cc3)nc21` [Example 29, 2-(5-hydroxy-8-methyl-2-(4-morpholinophenyl)-7-oxo-7,8-dihydropyrido[2,3-d]pyrimidine-6-carboxamido)acetic acid] came in with a concentration for half-maximal inhibition (IC50) of 3.7 nM.

For the compound `CC(C)Oc1ccc(-c2cc3c(O)c(C(=O)NCC(=O)O)c(=O)n(C)c3nn2)cc1` [Example 8, 2-(5-hydroxy-3-(4-isopropoxyphenyl)-8-methyl-7-oxo-7,8-dihydropyrido[2,3-c]pyridazine-6-carboxamido)acetic acid], the IC50 amounted to 21 nM. Against the preceding compound, the IC50 is about 5.7-fold higher.

On to `COc1cccc(-c2ncc3c(O)c(C(=O)NCC(=O)O)c(=O)n(C)c3n2)c1` [Example 34, 2-(5-hydroxy-2-(3-methoxyphenyl)-8-methyl-7-oxo-7,8-dihydropyrido[2,3-d]pyrimidine-6-carboxamido)acetic acid], for which the IC50 was 10 nM.

Compound `CC1CCCCN1c1ncc2c(O)c(C(=O)NCC(=O)O)c(=O)n(C)c2n1` (stereo not drawn) [Example 16, 2-(5-hydroxy-8-methyl-2-(2-methylpiperidin-1-yl)-7-oxo-7,8-dihydropyrido[2,3-d]pyrimidine-6-carboxamido)acetic acid] came in with an IC50 of 52.5 nM.
